Literature values in patent US7612172B2, “Nucleic acids and corresponding proteins entitled 282P1G3 useful in treatment and detection of cancer” (Agensys, Inc., priority 2002, dated 2009).

Legend:
[1] = tested on: LAGE-I tumor specific gene; settings: lymphoblastoid cells
T helper lymphocytes = settings: regardless of HLA type

Row | binding to HLA-DR alleles (HLA-DR alleles) | Molecule | expression of the LAGE-I tumor specific gene [1] | stimulation of T helper lymphocyte response (T helper lymphocytes)
1 |  | Nc1ncn([C@H]2C[C@H](O)[C@@H](CO)O2)c(=O)n1 [deoxy-azacytidine] | induced | 
2 | bind to most HLA-DR alleles | aKXVAAWTLKAa |  | stimulate the response of T helper lymphocytes from most individuals
